Assay [1] concerns the target T1, Acetylcholinesterase 1 (Caenorhabditis elegans) (UniProt P38433).
T1 sequence (whole entry): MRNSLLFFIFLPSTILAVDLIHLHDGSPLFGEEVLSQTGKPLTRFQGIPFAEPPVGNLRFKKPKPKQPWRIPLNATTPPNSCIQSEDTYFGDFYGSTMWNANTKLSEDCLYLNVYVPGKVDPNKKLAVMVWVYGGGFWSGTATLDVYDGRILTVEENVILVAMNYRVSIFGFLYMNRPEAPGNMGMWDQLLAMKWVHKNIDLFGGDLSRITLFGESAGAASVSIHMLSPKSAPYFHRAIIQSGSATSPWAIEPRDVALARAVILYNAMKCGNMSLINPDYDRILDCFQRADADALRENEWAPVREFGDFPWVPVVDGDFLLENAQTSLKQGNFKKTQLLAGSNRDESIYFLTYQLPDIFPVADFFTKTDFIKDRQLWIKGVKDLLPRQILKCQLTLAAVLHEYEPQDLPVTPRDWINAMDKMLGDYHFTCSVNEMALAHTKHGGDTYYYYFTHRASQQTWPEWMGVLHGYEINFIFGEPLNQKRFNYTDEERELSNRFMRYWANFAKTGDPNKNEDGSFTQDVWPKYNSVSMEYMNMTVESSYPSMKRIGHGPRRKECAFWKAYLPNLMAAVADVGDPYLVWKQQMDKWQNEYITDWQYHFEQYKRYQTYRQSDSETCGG
The experiment in a line: Inhibition of AChE in Caenorhabditis elegans assessed as increase in acetylcholine after 48 hrs by Amplex red assay.

Assay [2] addresses Alpha-synuclein (Homo sapiens) (UniProt P37840). Kind of assay: Inhibition of YFP-tagged human alpha-synuclein aggregation expressed in transgenic Caenorhabditis elegans model NL5901 incubated for 48 hrs by fluorescent microscopy relative to untreated control.
For assay [3], the system named is Caenorhabditis elegans. Kind of assay: Antioxidant activity in Caenorhabditis elegans N2 assessed as reduction in ROS generation H2DCFDA dye based fluorescent assay. In kind it is functional.
Assay [4] concerns HepG2. The experiment in a line: Cytotoxicity against human HepG2 cells assessed as inhibition of cell proliferation at 500 uM after 48 hrs by MTT assay. Format: functional. The conditions noted are these: HepG2, 48 h, read-out: GI. Background: Tetrazolium assays rely on reduction of a dye to a coloured formazan, in cell work by metabolically active cells.
The test system of assay [5] is Caenorhabditis elegans. The experiment in a line: Increase in DAF16 nuclear localization in GFP expressing Caenorhabditis elegans TJ356 after 48 hrs by fluorescence microscopy. Format: functional, organism-based.
The subject of assay [6] is Caenorhabditis elegans. Kind of assay: […] content in Caenorhabditis elegans N2 assessed as reduction in response time after 48 hrs nonanol repulsion assay. In kind it is functional.
Assay [7] has as its system HepG2. Kind of assay: Cytotoxicity against human HepG2 cells assessed as inhibition of cell proliferation at 2 mM after 48 hrs by MTT assay. The conditions noted are these: HepG2, 48 h, read-out: GI. In kind it is functional.
Assay [8] relates to HEK293. Kind of assay: Cytotoxicity against HEK293 cells assessed as inhibition of cell proliferation at 500 uM after 48 hrs by MTT assay. In kind it is functional. As to conditions: Homo sapiens, HEK293, 48 h; read-out: GI.
Assay [9] relates to Caenorhabditis elegans. The experiment in a line: […] content in Caenorhabditis elegans NL5901 assessed as reduction in response time after 48 hrs nonanol repulsion assay. Format: functional.
In assay [10] the test system is HEK293. The experiment in a line: Cytotoxicity against HEK293 cells assessed as inhibition of cell proliferation at 2 mM after 48 hrs by MTT assay. In kind it is functional. As to conditions: Homo sapiens, HEK293, 48 h; read-out: GI.

Calls of active or inactive are those of the source. The rule behind the calls is not given here.

With `COc1ccc(-c2cc3cc(C4C5=C(CC(C)(C)CC5=O)Oc5nc6c(c(N)c54)CCC6)cc(C(C)C)c3oc2=O)cc1` (racemic), the results for the fold change (FC) (in assay [1]; with Caenorhabditis elegans [3]) were 1.5 and 2.16, respectively. Besides, the inhibition entry in assay [2] was “inactive”.
On to `COc1cc(-c2cc3cc(C4C5=C(CCCC5=O)Oc5nc6c(c(N)c54)CCCC6)cc(C(C)C)c3oc2=O)cc(OC)c1OC` (racemic), for which the inhibition of growth at 500 µM with HepG2 [4] amounted to 26.1%; with HEK293 [8], 54%. In addition, in the assay with Caenorhabditis elegans [5], the result was Active. Also, the fold change (FC) was found to be 1.2 in [1]; 2.6 in the assay on Caenorhabditis elegans [6]; 2.6 in [2]; 1.75 in the assay on Caenorhabditis elegans [9]; 1.72 in the assay with Caenorhabditis elegans [3]. In addition, the inhibition of growth at 2000 µM in the assay with HepG2 [7] was 27.8%; in the assay with HEK293 [10], 73.8%.
`CCC(C)c1cc(C2C3=C(CCCC3=O)Oc3nc4c(c(N)c32)CCCC4)cc2cc(-c3cc(OC)c(OC)c(OC)c3)c(=O)oc12` (racemic): the inhibition of growth at 500 µM with HepG2 [4] is 8.66%; in the assay on HEK293 [8] it was 6.5%. Further, the outcome in the assay on Caenorhabditis elegans [5] was inactive. The fold change (FC) in assay [1] was determined as 1.15; in the assay on Caenorhabditis elegans [6], 1.8; in assay [2], 2.1; in the assay on Caenorhabditis elegans [9], 1.9; with Caenorhabditis elegans [3], 1.84. Also, the inhibition of growth at 2000 µM in the assay on HepG2 [7] turned out to be 16.5%; in the assay with HEK293 [10], 56.9%.
In the case of `CCC(C)c1cc(C2C3=C(CC(C)(C)CC3=O)Oc3nc4c(c(N)c32)CCCC4)cc2cc(-c3cc(OC)c(OC)c(OC)c3)c(=O)oc12` (racemic), the inhibition entry in [1] is “inactive”. Further, in [2], the fold change (FC) is 1.35.
As to `CCC(C)c1cc(C2C3=C(CC(C)(C)CC3=O)Oc3nc4c(c(N)c32)CCCC4)cc2cc(-c3ccc(OC)cc3)c(=O)oc12` (racemic), the fold change (FC) in assay [1] was 1.51; in assay [2], 2.
For `CCC(C)c1cc(C2C3=C(CCCC3=O)Oc3nc4c(c(N)c32)CCC4)cc2cc(-c3cc(OC)c(OC)c(OC)c3)c(=O)oc12` (racemic), the fold change (FC) in [1] came to 1.14; in assay [2], 1.76.
Turning to `COc1ccc(-c2cc3cc(C4C5=C(CC(C)(C)CC5=O)Oc5nc6c(c(N)c54)CCC6)cc(C(C)C)c3oc2=O)cc1OC` (racemic), the fold change (FC) in assay [1] stood at 1.19. The inhibition entry in assay [2] was “inactive”.
As to `COc1ccc(-c2cc3cc(C4C5=C(CC(C)(C)CC5=O)Oc5nc6c(c(N)c54)CCCC6)cc(C(C)C)c3oc2=O)cc1` (racemic), in assay [1], the fold change (FC) stood at 1.88.
With `COc1ccc(-c2cc3cc(C4C5=C(CC(C)(C)CC5=O)Oc5nc6c(c(N)c54)CCCC6)cc(C(C)C)c3oc2=O)cc1OC` (racemic), in [1], the fold change (FC) was 1.16. Moreover, the inhibition entry in assay [2] was “inactive”.
For the compound `Nc1c2c(nc3ccccc13)CCCC2` [TACRINE], the values for the inhibition of growth at 500 µM in the assay on HepG2 [4] and with HEK293 [8] were 83.4% and 72.3%, respectively. Moreover, the inhibition of growth at 2000 µM is 86.9% with HepG2 [7] and 83% in the assay with HEK293 [10].

The values are drawn from ChEMBL document CHEMBL3352513, “Discovery of 3-Arylcoumarin-tetracyclic Tacrine Hybrids as Multifunctional Agents against Parkinson's Disease” (2014).
